Values quoted from earlier work, collected in US20250268950A1, “PRENATAL SUPPLEMENT” (Arizona Board of Regents on Behalf of Arizona State …, priority 2021, published 2025).
Like-named read-outs stand apart in the source and are kept apart here. One block for each compound: values may come before it.

Experiments:
[1] = tested on: non-pregnant women with polycystic ovary syndrome; diabetes
[2] = tested on: pregnant women
[3] = tested on: infants
[4] = for plasma level as % of level at 2500 mg: non-pregnant women
[5] = tested on: pregnant women and their infants; details: maternal blood levels in the highest quartile; 397 ASD, 1034 controls
[6] = tested on: pregnant women and their infants; details: prenatal with vitamin E and dietary intake in upper half (12.6-33.8 mg/day)
[7] = diabetes, meta-analysis of 22 randomized controlled trials

Compound: [Cr] [Chromium]
pregnancy rate ([1]; 200 i.g for eight weeks, non-pregnant women with polycystic ovary syndrome (vs. 3%)): 17% | atypical depression ([1]; 400-600 i.g/day): helpful for atypical depression | adverse events [1, 7]: no difference in the adverse events between chromium and placebo | glycemic control and lipids [1, 7]: improved glycemic control, reduced triglycerides, and increased HDL-C | fasting plasma glucose and insulin levels ([2]; 4 i.g/kg, 24 women with gestational diabetes, U.S.): significantly improved their fasting plasma glucose and insulin levels

Compound: O[C@H]1[C@H](O)[C@@H](O)[C@H](O)[C@@H](O)[C@H]1O [Inositol, Myo-inositol]
side effects (high doses up to 18 grams per day): Only some mild diarrhea | side effects (less than 6 grams per day): zero side effects | macrosomia ([3]; 4000 mg/day, women at risk of gestational diabetes (vs 5.3%)): 2.1% | preterm birth ([3]; 4000 mg/day, women at risk of gestational diabetes (vs. 7.6%)): 3.4% | large for gestational age ([3]; 4000 mg/day, women at risk of gestational diabetes (vs. 8.9%)): 4.8% | gestational diabetes ([2]; 2000 mg/day, 223 overweight, non-obese pregnant women): significant decrease in gestational diabetes compared to placebo | gestational diabetes ([2]; 4000 mg/day, women at risk of gestational diabetes (vs. 25%)): 11% | gestational diabetes ([2]; 4 grams per day, at risk women): greatly reduced gestational diabetes (GD)

magnesium blood levels ([4]; 345 mg/day): enough to keep magnesium levels stable
Compound: [Mg] [Magnesium]
tolerability (supplementation studies, 184-500 mg/day): well-tolerated | perinatal and maternal composite outcome ([3]; 300 mg/day of elemental magnesium, Brazil): did not find any effect on perinatal composite outcome | preterm birth, RR ([3]; metanalysis of six RCT's, 3068 pregnant women): 0.58 | rate of pregnancy-induced hypertension ([2]; Angola and China studies combined, 201 participants (vs. 21% placebo)): 4% | rate of edema ([2]; Angola study (vs. 58%)): 24%

risk of ASD, OR [5]: 1.84
Compound: [Mn+2] [Manganese]
Tolerable Upper Limit for Pregnant Women (Table 18): 11 mg

Compound: Cc1ncc(CO)c(CO)c1O [Vitamin B6, Pyridoxine]
Tolerable Upper Limit for Pregnant Women (Table 12): 100 mg | effect on birth weight ([3]; 2 mg): sufficient to improve birth weight | dental decay during pregnancy ([2]; 20 mg/day): significantly reduced the rate of dental decay during pregnancy | symptoms of nausea ([2]; 25 mg every 8 hours for 3 days): decrease symptoms of nausea

Compound: O=C1O[C@H]([C@@H](O)CO)C(O)=C1O [Vitamin C]
maintenance of vitamin C concentrations ([4]; 100 mg supplementation): enough to maintain a constant leukocyte concentration (storage) of vitamin C, but not enough to maintain plasma concentrations | plasma level as % of level at 2500 mg ([4]; steady-state 100 mg/day): approximately 79% | plasma level as % of level at 2500 mg ([4]; steady-state 200 mg/day): ~88% | plasma level as % of level at 2500 mg ([4]; steady-state 400 mg/day): ~95% | plasma level as % of level at 2500 mg ([4]; steady-state 1000 mg/day): ~97% | Tolerable Upper Limit for Pregnant Women (Table 12): 2000 mg | infant pulmonary function and wheezing ([3]; 500 mg/day): improved infant pulmonary function and significantly decreased wheezing through age 1 year | risk of term PROM, RR ([2]; Cochrane meta-analysis, vitamin C alone, 170 participants): 0.55 | risk of preterm PROM, RR ([2]; Cochrane meta-analysis, vitamin C alone, 1282 participants, five studies): 0.66 | rate of urinary tract infections during pregnancy ([2]; Mexico, 100 mg/day (vs. 29%)): 13% | hospitalization during pregnancy ([2]; Uganda, 400 mg (vs. 28% for placebo (so in the source))): 42%

Compound: C=C1CCC(O)CC1=CC=C1CCCC2(C)C1CCC2C(C)CCCC(C)C (stereo not drawn) [Vitamin D]
blood levels of vitamin D ([4]; 2000-4000 IU/day): higher blood levels than just 400 IU/day | Tolerable Upper Limit for Pregnant Women (Table 12): 4000 IU | asthma/recurrent wheeze at 0-3 yrs, adjusted OR ([3]; combined analysis of two studies, 2400 IU/day and 4000 IU/day): 0.74 | reduction of risk of preeclampsia ([2]; 400-600 IU/day during pregnancy, after confounder adjustment): 29% | rate of maternal secondary hyperparathyroidism ([2]; 800 IU/day (from 27%)): 10%

increase of vitamin E levels by third trimester ([4]; 30 IU, US): 50% | risk of congenital heart defects, times higher [6]: 5-9
Compound: Vitamin E
Tolerable Upper Limit for Pregnant Women (Table 12): 1000 mg | rate of preterm births ([3]; about 450 mg/day (about 675 IU/day), non-randomized (vs. 9.3%)): 6.6% | rate of preterm births in women with preeclampsia ([3]; approximately 200-600 mg/day (vs. 10.4% unsupplemented)): 8.6% | risk of placental abruption, RR ([2]; Cochrane, alpha-tocopherol 200-800 IU with other supplements, 7 trials, 14,922 participants): 0.64

Compound: chromium picolinate
comparison of chromium forms [1, 7]: the form with the greatest effects on glucose and triglyceride levels
